# In US20250186434A1, “SOS1 PROTEIN DEGRADERS, PHARMACEUTICAL COMPOSITIONS THEREOF, AND THEIR THERAPEUTIC APPLICATIONS” (BioTheryX, Inc., priority 2022, published 2025):
# Target: T1, HiBiT-tagged endogenous SOS1 protein (Homo sapiens, UniProt Q07889)
# T1 construct: HEK293 cells were engineered to express a HiBiT-tagged endogenous SOS1 protein; endogenous in cells; host or cells: HEK293 (engineered, HiBiT knock-in at the endogenous SOS1 locus)
# T1 sequence (Q07889 1-1333): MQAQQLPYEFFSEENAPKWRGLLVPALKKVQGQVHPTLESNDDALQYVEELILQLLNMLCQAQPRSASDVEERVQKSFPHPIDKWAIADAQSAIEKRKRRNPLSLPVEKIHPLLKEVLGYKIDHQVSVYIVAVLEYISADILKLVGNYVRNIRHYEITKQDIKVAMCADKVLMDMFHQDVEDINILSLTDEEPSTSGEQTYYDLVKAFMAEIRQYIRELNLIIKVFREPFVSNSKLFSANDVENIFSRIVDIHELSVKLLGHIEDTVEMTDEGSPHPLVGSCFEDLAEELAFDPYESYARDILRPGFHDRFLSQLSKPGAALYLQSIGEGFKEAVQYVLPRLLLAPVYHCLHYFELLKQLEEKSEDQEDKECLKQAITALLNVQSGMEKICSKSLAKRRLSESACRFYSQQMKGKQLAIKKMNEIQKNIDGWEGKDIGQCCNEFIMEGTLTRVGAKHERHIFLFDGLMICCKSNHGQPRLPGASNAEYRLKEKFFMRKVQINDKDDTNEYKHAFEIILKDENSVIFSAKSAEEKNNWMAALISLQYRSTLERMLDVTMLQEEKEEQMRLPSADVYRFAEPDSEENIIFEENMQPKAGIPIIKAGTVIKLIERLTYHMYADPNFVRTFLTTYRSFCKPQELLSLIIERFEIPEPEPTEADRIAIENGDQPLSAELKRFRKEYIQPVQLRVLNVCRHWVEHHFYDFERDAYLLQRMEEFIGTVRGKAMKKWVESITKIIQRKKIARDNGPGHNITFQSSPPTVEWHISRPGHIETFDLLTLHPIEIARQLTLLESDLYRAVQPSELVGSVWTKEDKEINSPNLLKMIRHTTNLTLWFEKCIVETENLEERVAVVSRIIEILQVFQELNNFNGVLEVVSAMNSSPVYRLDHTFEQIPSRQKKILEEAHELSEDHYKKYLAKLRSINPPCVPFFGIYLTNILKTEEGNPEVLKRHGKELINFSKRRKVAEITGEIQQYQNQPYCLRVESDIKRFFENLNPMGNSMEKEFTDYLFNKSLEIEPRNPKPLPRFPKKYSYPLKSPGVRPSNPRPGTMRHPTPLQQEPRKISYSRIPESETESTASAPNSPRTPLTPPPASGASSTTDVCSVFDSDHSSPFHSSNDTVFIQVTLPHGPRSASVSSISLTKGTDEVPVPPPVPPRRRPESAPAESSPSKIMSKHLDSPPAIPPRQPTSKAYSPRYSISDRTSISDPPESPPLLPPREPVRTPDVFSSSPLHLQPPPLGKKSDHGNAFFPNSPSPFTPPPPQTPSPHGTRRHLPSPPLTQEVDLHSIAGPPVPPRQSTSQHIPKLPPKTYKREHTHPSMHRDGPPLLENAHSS
# Assay: SOS1-HiBiT Degradation Assay
# Assay type: cell-based
# Details: HEK293 cells expressing HiBiT-tagged endogenous SOS1, 6 h treatment
# Procedure: HEK293 cells were engineered to express a HiBiT-tagged endogenous SOS1 protein. The cells were cultured in DMEM media supplemented with 10% fetal bovine serum, streptomycin, and penicillin. The cells were seeded in a white walled 384-well plate at 12,500 cells/well in 50 μL culture media. The cells were incubated at 37° C. under 5% CO2 overnight. The cells were then treated with DMSO (control) or a compound for 6 h at 37° C. under 5% CO2. After incubation, 25 μL media was removed from each cell and 25 μL NANO-GLO® lytic detection reagent was added to each well. After a 10 min incubation with shaking, luminescence was measured using a PERKINELMER ENVISION® multimode plate reader.
Compound,DC50,Dmax
"Cc1c([C@@H](C)Nc2nnc(C)c3ccc(N4CCN(CCCCCN5CCN(C(=O)CNc6ccc(C7CCC(=O)NC7=O)cc6)CC5)CC4)cc23)cccc1C(F)(F)F (stereo partly drawn) [Compound A301, 3-(4-((2-(4-(5-(4-(1-Methyl-4-(((R)-1-(2-methyl-3-(trifluoromethyl)phenyl)-ethyl)amino)phthalazin-6-yl)piperazin-1-yl)pentyl)piperazin-1-yl)-2-oxoethyl)amino)phenyl)-piperidine-2,6-dione]",> 2000 nM,< 30%
"Cc1c([C@@H](C)Nc2nnc(C)c3ccc(N4CCN(CCCCCCCCCN5CCN(C(=O)CNc6ccc(C7CCC(=O)NC7=O)cc6)CC5)CC4)cc23)cccc1C(F)(F)F (stereo partly drawn) [Compound A303, 3-(4-((2-(4-(9-(4-(1-methyl-4-(((R)-1-(2-methyl-3-(trifluoromethyl)phenyl)-ethyl)amino)phthalazin-6-yl)piperazin-1-yl)nonyl)piperazin-1-yl)-2-oxoethyl)amino)phenyl)-piperidine-2,6-dione]",≤ 100 nM,≥ 70%
"COc1cc2nc(C)nc(N[C@H](C)c3cc(N)cc(C(F)(F)F)c3)c2cc1OC [Compound C1, (R)—N-(1-(3-amino-5-(trifluoromethyl)phenyl)ethyl)-6,7-dimethoxy-2-methylquinazolin-4-amine, reference compound]",> 10000 nM,

# Now from value to compound:
DC50,Dmax,Compound
≤ 100 nM,≥ 70%,"Cc1c([C@@H](C)Nc2nnc(C)c3ccc(N4CCN(CCCCCN5CCC(c6cc7c(cc6F)C(=O)N(C6CCC(=O)NC6=O)C7)CC5)CC4)cc23)cccc1C(F)(F)F (stereo partly drawn) [Compound A101, 3-(6-fluoro-5-(1-(5-(4-(1-methyl-4-(((R)-1-(2-methyl-3-(trifluoromethyl)phenyl)-ethyl)amino)phthalazin-6-yl)piperazin-1-yl)pentyl)piperidin-4-yl)-1-oxoisoindolin-2-yl)-piperidine-2,6-dione]"
≤ 100 nM,≥ 70%,"Cc1c([C@@H](C)Nc2nnc(C)c3ccc(N4CCN(CCCCCCCCCN5CCC(c6cc7c(cc6F)C(=O)N(C6CCC(=O)NC6=O)C7)CC5)CC4)cc23)cccc1C(F)(F)F (stereo partly drawn) [Compound A103, 3-(6-Fluoro-5-(1-(9-(4-(1-methyl-4-(((R)-1-(2-methyl-3-(trifluoromethyl)phenyl)-ethyl)amino)phthalazin-6-yl)piperazin-1-yl)nonyl)piperidin-4-yl)-1-oxoisoindolin-2-yl)-piperidine-2,6-dione]"
≤ 100 nM,≥ 70%,"Cc1c([C@@H](C)Nc2nnc(C)c3ccc(N4CCN(CCCCCCCCCN5CCN(C(=O)CNc6cccc7c(C8CCC(=O)NC8=O)nn(C)c67)CC5)CC4)cc23)cccc1C(F)(F)F (stereo partly drawn) [Compound A203, 3-(1-methyl-7-((2-(4-(9-(4-(1-methyl-4-(((R)-1-(2-methyl-3-(trifluoromethyl)-phenyl)ethyl)amino)phthalazin-6-yl)piperazin-1-yl)nonyl)piperazin-1-yl)-2-oxoethyl)amino)-1H-indazol-3-yl)piperidine-2,6-dione]"
